The source made the active and inactive calls.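 How the source made its calls: active means compounds giving half or more protection of infected cells from virus-caused growth loss, again on retest; inactive means the rest.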 Bounds are passed on as bounds.

This assay relates to CEM cells HIV-1 protection, formazan growth assay. In words: NCI AIDS Antiviral Assay. The following applies: for IC50: measured here: growth of uninfected CEM cells. An outline of the steps:
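Screen of anti-HIV-1 activity in human CEM cells using a formazan-based growth measurement at five drug concentrations. Hits with 50% or greater protection were repeated, and confirmation required reproducible complete protection.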

For `O=C(C[n+]1ccccc1)N=N/C(C(=O)Nc1c(Cl)c(O)c2ccccc2c1O)=C1/C(=O)Oc2cc(O)ccc2C1=O`, the EC50 was greater than 22.4 µM and the half-inhibitory concentration (IC50) came to 12 µM.

With `COc1cc(-c2oc3c(Cl)cc(Cl)cc3c(=O)c2O)cc(OC)c1OC`, the EC50 is greater than 200 µM and the IC50 was 38 µM. Take `CO/C=C/CCCN(C1CCCCC1)C(C#N)c1ccccc1` (centres undefined): the EC50 is greater than 16.6 µM and the IC50 is greater than 16.6 µM. In the case of `O=C1NC(=O)C(Cc2cccc(OCc3ccccc3)c2)C(=O)N1`, the EC50 was greater than 200 µM and the IC50 was greater than 200 µM. With `CCOC(=O)CSc1c([N+](=O)[O-])ncn1C`, the EC50 was greater than 1020 µM and the IC50 was 170 µM. For `Cc1ccc(S(=O)(=O)N2CCCSCCSCCCN(S(=O)(=O)c3ccc(C)cc3)CC2)cc1`, the EC50 is greater than 13.2 µM and the IC50 was greater than 13.2 µM.

In the case of `CC(=O)Nc1ccc(/C=C(\NC(=O)c2ccccc2)c2nc3ccc4c(c3[nH]2)C(=O)c2ccccc2C4=O)cc1`, the result was inactive. With `COC(=O)CC1NC(=O)C1C1(C)OCCO1` (centres undefined), the EC50 was greater than 251 µM and the IC50 is greater than 251 µM. In the case of `N=C(N)C1CN(CCc2cnc[nH]2)C(=O)NC1=O` (centres undefined), the EC50 is greater than 200 µM and the IC50 is greater than 200 µM. Take `CCOC(=O)c1[nH]c(COC(C)=O)c(CCCOC(C)=O)c1CCCOC(C)=O`: the outcome was inactive. Take `Cc1ccc(S(=O)(=O)NC(=O)NCCSSCCNC(=O)NS(=O)(=O)c2ccc(C)cc2)cc1`: the EC50 was greater than 200 µM and the concentration for half-maximal inhibition (IC50) is greater than 200 µM. In the case of `CCCCCC/C=C\CCCCCCCCCc1cccc(OC)c1O`, the EC50 was greater than 200 µM and the half-inhibitory concentration (IC50) is greater than 200 µM. `Nc1cc(Cl)ccc1N1C(=O)C=CC1=O`: the result was inactive. For `CCOC(=O)C1Nc2ccc([N+](=O)[O-])cc2[C@H]2OCC[C@@H]12` (some centres undefined), the EC50 was greater than 447 µM and the concentration for half-maximal inhibition (IC50) was greater than 447 µM. As to `O=C(N/C(=C\c1ccc(F)cc1)c1nc2ccccc2[nH]1)c1ccccc1`, the EC50 is greater than 191 µM and the half-inhibitory concentration (IC50) was greater than 191 µM.

Consider `O/N=C/[C@H]1COC2(CCCCC2)O1`, for which the EC50 was greater than 200 µM and the half-maximal inhibitory concentration (IC50) is greater than 200 µM. As to `O=c1ccc2ccc(O)cc2o1`, the EC50 was greater than 1550 µM and the IC50 stood at 302 µM. For `COc1cc2c(c3oc(=O)ccc13)[C@@H](OC(=O)C13CCC(C)(C(=O)O1)C3(C)C)[C@@H](OC(=O)C13CCC(C)(C(=O)O1)C3(C)C)C(C)(C)O2` (some centres undefined) the same measures were 0.324 µM and greater than 200 µM. Regarding `CN(C)c1ccc(C=C2C=CC=C2)cc1`, the EC50 was greater than 19.1 µM and the IC50 is greater than 19.1 µM. With `CC(=O)NC1C(=O)N(c2ccccc2)C1c1ccccc1` (centres undefined), the EC50 is greater than 178 µM and the half-maximal inhibitory concentration (IC50) is greater than 178 µM.

In the case of `C=CCn1c(-c2ccccc2)cs/c1=N\C(P(=O)(O)O)P(=O)(O)O`, the EC50 was greater than 200 µM and the IC50 was greater than 200 µM.

`CCn1c2c(c3ccccc31)C(c1ccccc1)CC1C(=O)N(c3ccccc3)C(=O)C21` (centres undefined): the EC50 was greater than 11.7 µM and the IC50 was greater than 11.7 µM.

Regarding `[N-]=[N+]=Nc1c(Cl)c(=O)n(-c2ccccc2)c2ccccc12`, the EC50 is greater than 200 µM and the IC50 was found to be 29.5 µM.

Take `CC(C(=O)c1ccc(O)cc1)C1(O)C(=O)Nc2c(Cl)cc(Cl)cc21` (centres undefined): the EC50 is greater than 257 µM and the concentration for half-maximal inhibition (IC50) came to 112 µM. Turning to `O=c1ccc2nc3cc(Cl)ccc3sc-2c1`, the EC50 was greater than 8.13 µM and the IC50 amounted to 2.19 µM. Turning to `N/C(=N/N=C/c1cccc([N+](=O)[O-])c1)NO`, the result was inactive. As to `NCc1ccccc1-c1c2nc(c(-c3ccccc3CN)c3ccc([nH]3)c(-c3ccccc3CN)c3nc(c(-c4ccccc4CN)c4ccc1[nH]4)C=C3)C=C2`, the EC50 was greater than 9.77 µM and the 50% inhibitory concentration (IC50) was greater than 9.77 µM. Turning to `COC1/C=C/OC2(C)Oc3c(C)c(O)c4c(O)c(c(/C=N/Nc5ncccn5)c(O)c4c3C2=O)NC(=O)C(C)=C/C=C/C(C)C(O)C(C)C(O)C(C)C(OC(C)=O)C1C` (centres undefined), the EC50 was greater than 151 µM and the IC50 came out at 9.12 µM. With `CC(=Nc1ccccc1S)c1c(O)ccc2c(C)cc(=O)oc12`, the EC50 was greater than 11.5 µM and the concentration for half-maximal inhibition (IC50) is greater than 11.5 µM. Take `CC[C@@H]1CN2CCc3c([nH]c4ccccc34)[C@@H]2C[C@@H]1/C(=C\OC)C(=O)OC`: the EC50 is greater than 64.6 µM and the 50% inhibitory concentration (IC50) is greater than 64.6 µM. With `Cc1ccc(S(=O)(=O)CNC(=O)C(O)(O)C(F)(F)F)cc1`, the EC50 is greater than 200 µM and the concentration for half-maximal inhibition (IC50) is greater than 200 µM. For the compound `c1ccc2c(c1)sc1scc[n+]12`, the EC50 is greater than 617 µM and the IC50 is 12.9 µM.

On to `COc1ccccc1C(=O)N(Cc1ccccc1)c1ccc(Cl)c(C(=O)OC(C)C)c1`, for which the EC50 was greater than 19.5 µM and the half-maximal inhibitory concentration (IC50) turned out to be 15.5 µM. As for `Cc1c([N+](=O)[O-])c(=O)oc2cc3occc(=O)c3cc12`, the EC50 is greater than 36.3 µM and the IC50 is 18.2 µM. Consider `CCCCCC=C(c1cc(Br)c(OC)c(C(=O)OC)c1)c1cc(Br)c(OC)c(C(=O)OC)c1`, for which the EC50 is 26.9 µM and the IC50 is 87.1 µM. With `Cc1ccc(-c2c3nc(c(-c4ccc(C)cc4)c4ccc([nH]4)c(-c4ccc(C)cc4)c4nc(c(-c5ccncc5)c5ccc2[nH]5)C=C4)C=C3)cc1.Cc1ccc(-c2c3nc(c(-c4ccc(C)cc4)c4ccc([nH]4)c(-c4ccc(C)cc4)c4nc(c(-c5ccncc5)c5ccc2[nH]5)C=C4)C=C3)cc1.Cc1ccc(-c2c3nc(c(-c4ccc(C)cc4)c4ccc([nH]4)c(-c4ccc(C)cc4)c4nc(c(-c5ccncc5)c5ccc2[nH]5)C=C4)C=C3)cc1.Cc1ccc(-c2c3nc(c(-c4ccc(C)cc4)c4ccc([nH]4)c(-c4ccc(C)cc4)c4nc(c(-c5ccncc5)c5ccc2[nH]5)C=C4)C=C3)cc1.O=S(=O)([O-])C(F)(F)F.[Pt]`, the EC50 was greater than 25.1 µM and the 50% inhibitory concentration (IC50) amounted to 14.1 µM. `CSCCC(NCc1c(O)ccc2c(-c3ccccc3)cc(=O)oc12)C(=O)O` (centres undefined): the EC50 was greater than 200 µM and the IC50 is greater than 200 µM. With `CC1(C)C=Cc2c(ccc3c(=O)c(-c4ccccc4)coc23)O1`, the EC50 was greater than 100 µM and the IC50 is greater than 100 µM.

With `CCOc1cc2c(cc1O)C=C[C@@H]1[C@@H]2CC[C@]2(C)[C@@H](O)CC[C@@H]12`, the EC50 was greater than 2 µM and the half-maximal inhibitory concentration (IC50) was found to be 0.589 µM. Consider `Cn1cc(N)cc1C(=O)Nc1ccc(S(=O)(=O)O)c2cc(S(=O)(=O)O)ccc12`, for which the EC50 was greater than 490 µM and the half-maximal inhibitory concentration (IC50) is greater than 490 µM. Regarding `COc1ccc(-c2nnc(CCCCCCCCc3nnc(-c4ccc(OC)cc4)o3)o2)cc1`, the EC50 is greater than 200 µM and the IC50 was greater than 200 µM. For `OC(c1cc(C(O)(C(F)(F)F)C(F)(F)F)ncn1)(C(F)(F)F)C(F)(F)F`, the EC50 was greater than 200 µM and the IC50 came out at 166 µM.

In the case of `O=C1C[C@@]23CCC4(CC2=CCC[C@H]3O1)OCCO4`, the outcome was inactive. On to `CC(=O)NC1=C(C)C(=O)c2c(nc3n2CCC3OC(=O)c2ccccc2)C1=O` (centres undefined), for which the EC50 is greater than 200 µM and the IC50 is 0.977 µM. Regarding `CC(C)C(OC(=O)c1cc(NC(=S)c2cccn2C)ccc1Cl)C(C)C`, the EC50 was 0.234 µM and the IC50 came to 18.2 µM. With `CC(C)(CN1CCCCC1)C(=O)/C=C/c1c(Cl)cccc1Cl`, the EC50 was greater than 200 µM and the IC50 was determined as 1.86 µM.

Regarding `C=C(c1ccc(OC)cc1)C(CC)c1ccc(OC)cc1` (centres undefined), the EC50 is greater than 200 µM and the half-maximal inhibitory concentration (IC50) came out at 37.2 µM.

Consider `O=C(NNCC(F)(F)F)c1ccncc1`, for which the EC50 was greater than 200 µM and the IC50 was determined as 30.2 µM. `CC1(C)Oc2ccc3ccc(=S)oc3c2[C@@H](OC(=O)C23CCC(C)(C(=O)O2)C3(C)C)[C@H]1OC(=O)C12CCC(C)(C(=O)O1)C2(C)C` (some centres undefined): the EC50 was 0.525 µM and the IC50 came out at 5.62 µM. Turning to `N/C(CSCCSC/C(N)=N/O)=N\O`, the EC50 is greater than 200 µM and the IC50 is greater than 200 µM. With `CCC1c2ccccc2[C@H]2C(c3ccccc3)=NN(c3ccccc3)[C@H]2N1CC` (some centres undefined), the EC50 was greater than 200 µM and the IC50 was determined as 56.2 µM. With `O=C1NC2(O)c3ccccc3C(=O)C2(O)N1c1ccccc1` (centres undefined), the EC50 was greater than 851 µM and the half-inhibitory concentration (IC50) is 692 µM. As for `CC(=O)OC1CCC2OOC1O2` (centres undefined), the result was inactive. On to `COC(CN1CCOCCOCCOCC1)CN1CCOCCOCCOCC1`, for which the EC50 was greater than 2510 µM and the IC50 is greater than 2510 µM.

In the case of `O=C(O)[C@@H](NS(=O)(=O)c1ccc(F)cc1)c1ccccc1`, the result was inactive. In the case of `N#CCCN(C1=NN(C(=O)CC(=O)Nc2ccc(Cl)cc2)C(c2ccccc2)C1)c1ccc(Cl)cc1` (centres undefined), the EC50 was greater than 50.1 µM and the IC50 is greater than 50.1 µM.

Turning to `CCN1CN(c2ccccc2)C2(CCN(CC(CC3OCCO3)c3ccc(F)cc3)CC2)C1=O` (centres undefined), the EC50 is greater than 200 µM and the IC50 came out at 7.24 µM. Turning to `CC1(C)OC(=O)C(=Cc2ccc3c(c2)OCO3)C(=O)O1`, the EC50 is greater than 129 µM and the IC50 stood at 110 µM. `Clc1nc(Cl)nc(N2CCCc3ccccc32)n1`: the EC50 is greater than 200 µM and the IC50 amounted to 3.89 µM. Turning to `COC1(OC)C2(Cl)C3=CCCC=C3C1(Cl)C(Cl)=C2Cl`, the result was inactive.

For `O=S(=O)([O-])c1ccc(N=Cc2ccccc2[O-])cc1.O=S(=O)([O-])c1ccc(N=Cc2ccccc2[O-])cc1.[Co+2]`, the EC50 is greater than 407 µM and the 50% inhibitory concentration (IC50) was determined as 23.4 µM.

Take `COc1ccc2c(c1OC)C1N(C)CCc3cc4c(cc3C1(OC)C2=O)OCO4` (centres undefined): the outcome was inactive. `COC(=O)[C@H](CCCN=C(N)N)NC(=O)CCCCCCCCCCNC(=O)c1cc(CNC2=NCCN2)cc(CNC2=NCCN2)c1`: the EC50 is greater than 100 µM and the concentration for half-maximal inhibition (IC50) was greater than 100 µM. Turning to `N=C(c1ccccc1)N1CCCCC1`, the result was inactive. As to `COc1ccc2c(c1)C13CCCC(C)(C(=O)NC1)C3CC2` (centres undefined), the EC50 is greater than 200 µM and the IC50 is greater than 200 µM. `N/C(Cc1ccc(Cl)cc1)=N/O`: the EC50 was greater than 200 µM and the IC50 was greater than 200 µM. Consider `O=[N+]([O-])c1ccc(Nc2ccccc2)c2nonc12`, for which the EC50 is greater than 87.1 µM and the concentration for half-maximal inhibition (IC50) turned out to be 41.7 µM.
